Results from patent US12071404B2, “Aza (indole)-, benzothiophene-, and benzofuran-3-sulfonamides” (UCB Pharma GmbH, priority 2016, dated 2024).

Tests used:
GPR17 [1] = target: T1, GPR17 (Homo sapiens, UniProt Q13304); test: cAMP accumulation functional assay (HTRF, Schild analysis); assay type: cell-based; design: host or cells: Flp-In T-REx CHO; settings: CHO hGPR17 cells, Schild analysis vs MDL29,951, 5 μM forskolin, read-out: cAMP assay pA2 (converted)
Protocol: Flp-In T-REx CHO cells stably expressing human GPR17 receptor (CHO hGPR17) from Evi Kostenis' lab (Bonn University, Germany) were cultured at 37° C. in a humidified atmosphere of 5% CO2. Cells were grown in DMEM with Nutrient Mixture F-12 supplemented with hygromycin B (500 μg/mL) and blasticidin (30 μg/mL). Expression from the Flp-In locus was induced by treatment with doxycycline (1 μg/mL) for 16-20 h prior assays.
GPR17 activation can also recruit Gi-type G-protein signaling, resulting in a decrease of intracellular cyclic adenosine monophosphate (cAMP). Intracellular cAMP changes can be measured using the HTRF cAMP dynamic assay kit from CisBio (Codolet, France). Using homogenous time-resolved fluorescence technology (HTRF), the assay is based on competition between native cAMP produced by cells and cAMP labelled with the dye d2. The tracer binding was determined by an anti-cAMP antibody labeled with cryptate.
CHO hGPR17 were detached with PBS containing EDTA and dispatched in black 384-well plates with 5,000 cells per well. Cells were first incubated for 30 minutes at room temperature in HBSS Hepes (pH 7.4) containing vehicle or varying concentrations of test GPR17 antagonist/inverse agonist compounds. […] After 60 minutes incubation at room temperature, the reaction is terminated and the cells lysed by adding the d2 detection reagent and the cryptate reagent in 10 μL lysis buffer each according to manufacturer's instructions. After 60 minutes incubation, changes in cAMP concentrations are measured according to manufacturer's instructions using an Envision plate reader with laser excitation. All incubations were performed in duplicate. Data was analyzed using GraphPad Prism software using the 4-parameter logistic equation to measure MDL29,951 pEC50s in absence and presence of GPR17 antagonist/inverse agonist test compounds. Dose ratio (DR) were plotted against antagonist concentrations and Schild analysis provided estimated affinity pA2 of GPR17 antagonist/inverse agonist test compounds.
The activities of the Example compounds tested are depicted in the table below. The activity ranges A, B and C refer to pA2 values in the cAMP assay as follows: “A”: pA2<7.5, “B”: pA2 7.5<x≤8.5, “C”: pA2>8.5.

GPR17 [2] = target: T1, GPR17; test: Calcium mobilization functional assay (GPR17 Ca2+ assay); assay type: cell-based; design: host or cells: Flp-In T-REx CHO; settings: CHO hGPR17 cells, inhibition of 50 nM MDL29,951, Calcium 5 dye, FLIPR; read-out: Ca2+ assay pIC50 (converted)
In short: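 pIC50 values were fitted with a 4-parameter logistic curve. They reflect test-compound inhibition of cytosolic Ca2+ release evoked by 50 nM MDL29,951, tracked as Calcium 5 fluorescence at room temperature. Cells were CHO Flp-In T-REx stably carrying human GPR17, induced with doxycycline 1 μg/mL for 16-20 h.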

T1 sequence (Q13304 whole entry): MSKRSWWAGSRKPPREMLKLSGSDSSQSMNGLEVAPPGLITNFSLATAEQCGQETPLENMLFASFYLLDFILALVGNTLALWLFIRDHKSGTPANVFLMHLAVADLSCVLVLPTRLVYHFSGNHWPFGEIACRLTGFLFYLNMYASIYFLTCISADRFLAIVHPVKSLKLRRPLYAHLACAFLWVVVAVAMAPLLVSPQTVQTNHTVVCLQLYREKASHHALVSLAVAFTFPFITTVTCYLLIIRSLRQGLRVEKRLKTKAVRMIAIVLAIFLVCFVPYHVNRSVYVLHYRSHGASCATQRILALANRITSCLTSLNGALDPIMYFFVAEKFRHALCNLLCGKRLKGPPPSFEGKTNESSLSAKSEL

Row | Kb (GPR17 [1]) [nM] | IC50 (GPR17 [2]) [nM] | SMILES
1 | 3.16 to 31.6 | 3.16 to 31.6 | O=S(=O)(Nc1cccc2nsnc12)c1c[nH]c2ncc(I)cc12 [Compound I-98, N-(2,1,3-benzothiadiazol-4-yl)-5-iodo-1H-pyrrolo[2,3-b]pyridine-3-sulfonamide]
2 | 3.16 to 31.6 | 3.16 to 31.6 | O=S(=O)(Nc1cccc2nsnc12)c1c[nH]c2cc(F)ccc12 [Compound I-107, N-(2,1,3-benzothiadiazol-4-yl)-6-fluoro-1H-indole-3-sulfonamide]
3 | 3.16 to 31.6 | < 3.16 | O=S(=O)(Nc1cccc2nsnc12)c1c[nH]c2cc(Cl)ccc12 [Compound I-109, N-(2,1,3-benzothiadiazol-4-yl)-6-chloro-1H-indole-3-sulfonamide]
4 | < 3.16 | < 3.16 | O=S(=O)(Nc1cccc2nsnc12)c1c[nH]c2cc(Br)ccc12 [Compound I-110, N-(2,1,3-benzothiadiazol-4-yl)-6-bromo-1H-indole-3-sulfonamide]
5 | > 31.6 | 3.16 to 31.6 | N#Cc1ccc(NS(=O)(=O)c2c[nH]c3cc(F)ccc23)c(F)c1 [Compound I-113, N-(4-cyano-2-fluorophenyl)-6-fluoro-1H-indole-3-sulfonamide]
6 | 3.16 to 31.6 | 3.16 to 31.6 | O=S(=O)(Nc1cccc2c1OC(F)(F)O2)c1c[nH]c2cc(Cl)ccc12 [Compound I-123, 6-chloro-N-(2,2-difluoro-1,3-benzodioxol-4-yl)-1H-indole-3-sulfonamide]
7 | 3.16 to 31.6 | 3.16 to 31.6 | O=S(=O)(Nc1ccc(F)c2nsnc12)c1c[nH]c2cc(Cl)ccc12 [Compound I-127, 6-chloro-N-(7-fluoro-2,1,3-benzothiadiazol-4-yl)-1H-indole-3-sulfonamide]
8 | < 3.16 | < 3.16 | O=S(=O)(Nc1ccc(I)cc1F)c1c[nH]c2cc(Cl)ccc12 [Compound I-140, 6-chloro-N-(2-fluoro-4-iodophenyl)-1H-indole-3-sulfonamide]
9 | < 3.16 | 3.16 to 31.6 | O=S(=O)(Nc1ccc(Cl)cc1F)c1c[nH]c2cc(Cl)ccc12 [Compound I-141, 6-chloro-N-(4-chloro-2-fluorophenyl)-1H-indole-3-sulfonamide]
10 | 3.16 to 31.6 | 3.16 to 31.6 | O=S(=O)(Nc1ccc2nsnc2c1)c1c[nH]c2cc(Cl)ccc12 [Compound I-147, N-(2,1,3-benzothiadiazol-5-yl)-6-chloro-1H-indole-3-sulfonamide]

More lines, now with the values behind:

Row | SMILES | Kb (GPR17 [1]) [nM] | IC50 (GPR17 [2]) [nM]
11 | O=S(=O)(Nc1cc(F)c(F)cc1F)c1c[nH]c2nc(Br)ccc12 [Compound I-95, 6-bromo-N-(2,4,5-trifluorophenyl)-1H-pyrrolo[2,3-b]pyridine-3-sulfonamide] | 3.16 to 31.6 | 3.16 to 31.6
12 | O=S(=O)(Nc1cccc2c1OCO2)c1c[nH]c2nc(Cl)ccc12 [Compound I-96, N-(1,3-benzodioxol-4-yl)-6-chloro-1H-pyrrolo[2,3-b]pyridine-3-sulfonamide] | > 31.6 | 3.16 to 31.6
13 | O=S(=O)(Nc1cccc2c1OCO2)c1c[nH]c2nc(Br)ccc12 [Compound I-97, N-(1,3-benzodioxol-4-yl)-6-bromo-1H-pyrrolo[2,3-b]pyridine-3-sulfonamide] | 3.16 to 31.6 | 3.16 to 31.6
14 | O=S(=O)(Nc1cccc2c1OC(F)(F)O2)c1c[nH]c2nc(Cl)ccc12 [Compound I-100, 6-chloro-N-(2,2-difluoro-1,3-benzodioxol-4-yl)-1H-pyrrolo[2,3-b]pyridine-3-sulfonamide] | 3.16 to 31.6 | > 31.6
15 | O=S(=O)(Nc1ccc(I)cc1F)c1c[nH]c2nc(Br)ccc12 [Compound I-104, 6-bromo-N-(2-fluoro-4-iodophenyl)-1H-pyrrolo[2,3-b]pyridine-3-sulfonamide] | < 3.16 | < 3.16
16 | N#Cc1ccc(NS(=O)(=O)c2c[nH]c3nc(Cl)ccc23)c(F)c1 [Compound I-108, 6-chloro-N-(4-cyano-2-fluorophenyl)-1H-pyrrolo[2,3-b]pyridine-3-sulfonamide] | 3.16 to 31.6 | 3.16 to 31.6
17 | COc1ccc2c(S(=O)(=O)Nc3ccc(C#N)cc3F)c[nH]c2c1 [Compound I-112, N-(4-cyano-2-fluorophenyl)-6-methoxy-1H-indole-3-sulfonamide] | 3.16 to 31.6 | 3.16 to 31.6
18 | N#Cc1ccc(NS(=O)(=O)c2c[nH]c3cc(Br)ccc23)c(F)c1 [Compound I-114, 6-bromo-N-(4-cyano-2-fluorophenyl)-1H-indole-3-sulfonamide] | < 3.16 | < 3.16
19 | O=S(=O)(Nc1cc(F)c(Cl)cc1F)c1c[nH]c2c1ccc1cccnc12 [Compound I-118, N-(4-chloro-2,5-difluorophenyl)-1H-pyrrolo[3,2-h]quinoline-3-sulfonamide] | < 3.16 | < 3.16
20 | O=S(=O)(Nc1cccc2nonc12)c1c[nH]c2c1ccc1cccnc12 [Compound I-119, N-(2,1,3-benzoxadiazol-4-yl)-1H-pyrrolo[3,2-h]quinoline-3-sulfonamide] | 3.16 to 31.6 | 3.16 to 31.6
21 | COc1cc(NS(=O)(=O)c2c[nH]c3cc(Cl)ccc23)ccc1C#N [Compound I-124, 6-chloro-N-(4-cyano-3-methoxyphenyl)-1H-indole-3-sulfonamide] | 3.16 to 31.6 | 3.16 to 31.6
22 | O=S(=O)(Nc1cc2c(cc1F)OC(F)(F)O2)c1c[nH]c2cc(Cl)ccc12 [Compound I-125, 6-chloro-N-(2,2,6-trifluoro-1,3-benzodioxol-5-yl)-1H-indole-3-sulfonamide] | 3.16 to 31.6 | 3.16 to 31.6
23 | COc1cc(C#N)ccc1NS(=O)(=O)c1c[nH]c2cc(Cl)ccc12 [Compound I-126, 6-chloro-N-(4-cyano-2-methoxyphenyl)-1H-indole-3-sulfonamide] | 3.16 to 31.6 | 3.16 to 31.6
24 | COc1cc(Br)cnc1NS(=O)(=O)c1c[nH]c2cc(Cl)ccc12 [Compound I-129, N-(5-bromo-3-methoxypyridin-2-yl)-6-chloro-1H-indole-3-sulfonamide] | 3.16 to 31.6 | 3.16 to 31.6
25 | N#Cc1cc(NS(=O)(=O)c2c[nH]c3cc(Cl)ccc23)c2c(c1)OC(F)(F)O2 [Compound I-132, 6-chloro-N-(6-cyano-2,2-difluoro-1,3-benzodioxol-4-yl)-1H-indole-3-sulfonamide] | 3.16 to 31.6 | 3.16 to 31.6
26 | N#Cc1ccc(NS(=O)(=O)c2c[nH]c3cc(C4CC4)ccc23)cc1 [Compound I-133, N-(4-cyanophenyl)-6-cyclopropyl-1H-indole-3-sulfonamide] | 3.16 to 31.6 | < 3.16
27 | N#Cc1ccc(NS(=O)(=O)c2c[nH]c3cc(Br)ccc23)cc1 [Compound I-134, 6-bromo-N-(4-cyanophenyl)-1H-indole-3-sulfonamide] | < 3.16 | < 3.16
28 | N#Cc1ccc(NS(=O)(=O)c2coc3cc(Cl)ccc23)cc1 [Compound I-139, 6-chloro-N-(4-cyanophenyl)-1-benzofuran-3-sulfonamide] | > 31.6 | 3.16 to 31.6
29 | O=S(=O)(Nc1cccc2n[se]nc12)c1c[nH]c2cc(Cl)ccc12 [Compound I-142, N-(2,1,3-benzoselenadiazol-4-yl)-6-chloro-1H-indole-3-sulfonamide] | < 3.16 | < 3.16
30 | COc1cc(NS(=O)(=O)c2c[nH]c3cc(Cl)ccc23)c(F)cc1C#N [Compound I-143, 6-chloro-N-(4-cyano-2-fluoro-5-methoxyphenyl)-1H-indole-3-sulfonamide] | < 3.16 | < 3.16
